A short description of data set [1]: Solubility in dissolution media / solvents. Type of data set: physicochemical. Conditions: 0.01 M HCl or simulated gastric juice (pH=1.2). How it is done:
WO 05/025566 is directed to irbesartan-containing oral pharmaceutical formulations having improved dissolution profiles, and especially dissolution of 80% or more 15 minutes after dosing and of 90% or more 30 minutes after dosing.

The conditions of data set [2]: as described in WO 05/025566; cited from earlier work.

Molecules are shown by their SMILES. Structures can show the parent of a compound that is named as a salt.

Regarding `CCCCC1=NC2(CCCC2)C(=O)N1Cc1ccc(-c2ccccc2-c2nnn[nH]2)cc1` [irbesartan-HCl, irbesartan hydrochloride], in data set [1], the “Solubility as compared to the free irbesartan” value was “higher”.
For the molecule `CCCCC1=NC2(CCCC2)C(=O)N1Cc1ccc(-c2ccccc2-c2nnn[nH]2)cc1` [irbesartan, 2-Butyl-3-[[2′-(1H-tetrazol-5-yl) [1,1′-biphenyl]-4-yl]methyl]-1,3-diazaspiro[4,4]-non-1-en-4-one], in data set [2], the “Solubility in alcohol and CH2Cl2” value is given as “slightly soluble”; the Solubility in water entry is reported as “insoluble”.

The values are drawn from US20110045097A1, “SOLID PHARMACEUTICAL COMPOSITION COMPRISING IRBESARTAN” (KRKA, d.d. Novo mesto, priority 2006, published 2011).
